In patent US9732087B2, “Diamino-pyridine, pyrimidine, and pyridazine modulators of the histamine H4 receptor” (JANSSEN PHARMACEUTICA NV, priority 2008, dated 2017):
pKi: −log10 of the molar value. Like-named read-outs stand apart in the source and are kept apart here.

Target: human H4 receptor (Homo sapiens (Human), UniProt Q9H3N8)
Test: Binding assay on recombinant human histamine H4 receptor ([3H]histamine competition, SK-N-MC cell membranes)
In short: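 Membranes from SK-N-MC cells stably or transiently transfected with human H4 receptor, prepared by homogenization and 30,000 g centrifugation in Tris/EDTA. Bound [3H]histamine separated by rapid filtration on PEI-treated GF/C filters, washed with ice-cold Tris/EDTA, counted by scintillation. '>' values denote highest concentration tested.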

[1] = membranes harvested with cell harvester, [3H]histamine 10 nM, average of results, read-out: Cell Harvester Ki
[2] = membranes harvested with 96 well Brandel system, [3H]histamine 10 nM, average of results, read-out: Brandel Ki

Sequence of human H4 receptor (Q9H3N8 whole entry): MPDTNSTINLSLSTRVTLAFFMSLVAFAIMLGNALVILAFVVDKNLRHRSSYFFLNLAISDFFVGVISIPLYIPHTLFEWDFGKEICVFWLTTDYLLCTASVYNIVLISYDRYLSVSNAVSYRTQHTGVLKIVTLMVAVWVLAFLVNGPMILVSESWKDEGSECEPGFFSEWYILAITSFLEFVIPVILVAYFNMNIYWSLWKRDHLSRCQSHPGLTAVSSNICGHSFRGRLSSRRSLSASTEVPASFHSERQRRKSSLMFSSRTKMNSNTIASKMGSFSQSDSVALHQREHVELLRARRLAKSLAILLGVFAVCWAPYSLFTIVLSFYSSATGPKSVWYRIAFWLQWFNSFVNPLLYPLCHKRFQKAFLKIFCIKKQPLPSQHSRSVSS

SMILES	pKi [1]	also measured
CN[C@@H]1CCN(c2ccnc(NCC3CCCCC3)n2)C1 [Example 191, N-(Cyclohexylmethyl)-4-[(3R)-3-(methylamino)pyrrolidin-1-yl]pyrimidin-2-amine]	8.45	–
C[C@@H](Nc1cc(N2CC[C@@H](N)C2)cnn1)c1ccccc1 [Example 321, 5-[(3R)-3-Aminopyrrolidin-1-yl]-N-[(1R)-1-phenylethyl]pyridazin-3-amine]	6.20	–
CN1CCN(c2ccnc(NC3CCC3)n2)CC1 [Example 54, N-Cyclobutyl-4-(4-methylpiperazin-1-yl)pyrimidin-2-amine]	7.06	–
CN[C@@H]1CCN(c2ccnc(NC3C4CC5CC(C4)CC3C5)c2)C1 (stereo partly drawn) [Example 208, Adamantan-2-yl-[4-(3R)-(3-methylamino-pyrrolidin-1-yl)-pyridin-2-yl]-amine]	9.07	–
CC(C)CNc1cc(N2CC[C@H](N)C2)cnn1 [Example 339, 5-[(3S)-3-Aminopyrrolidin-1-yl]-N-(2-methylpropyl)pyridazin-3-amine]	6.66	–
CN1CCN(c2ccnc(NC[C@H]3CC[C@H]4C[C@@H]3C4(C)C)c2)CC1 [Example 221, N-{[(1S,2S,5S)-6,6-Dimethylbicyclo[3.1.1]hept-2-yl]methyl}-4-(4-methylpiperazin-1-yl)pyridin-2-amine]	6.07	–
CC1(C)[C@H]2CC[C@H](CNc3cc(N4C[C@H]5CCN[C@H]5C4)ccn3)[C@@H]1C2 [Example 291, N-{[(1S,2S,5S)-6,6-Dimethylbicyclo[3.1.1]hept-2-yl]methyl}-4-[(3aR,6aR)-hexahydropyrrolo[3.4-b]pyrrol-5(1H)-yl]pyridin-2-amine]	6.62	–
CCCCNc1nccc(N2CC[C@H](N)C2)n1 [Example 196, 4-[(3S)-3-Aminopyrrolidin-1-yl]-N-butylpyrimidin-2-amine]	6.65	–
CC1(C)[C@@H]2CC[C@@]1(C)[C@@H](Nc1nccc(N3CC[C@@H](N)C3)n1)C2 [Example 127, 4-[(3R)-3-Aminopyrrolidin-1-yl]-N-[(1R,2S,4R)-1,7,7-trimethylbicyclo[2.2.1]hept-2-yl]pyrimidin-2-amine]	8.78	–
CN[C@H]1CCN(c2ccnc(NCc3ccc(F)cc3)c2)C1 [Example 246, N-(4-Fluorobenzyl)-4-[(3S)-3-(methylamino)pyrrolidin-1-yl]pyridin-2-amine]	6.40	–
CN[C@@H]1CCN(c2ccnc(NCCCO)n2)C1 [Example 167, 3-({4-[(3R)-3-(Methylamine)pyrrolidin-1-yl]pyrimidin-2-yl}amino)propan-1-ol]	7.46	–
CN[C@@H]1CCN(c2cnnc(NCc3ccc(F)cc3)c2)C1 [Example 398, N-(4-Fluorobenzyl)-5-[(3R)-3-(methylamino)pyrrolidin-1-yl]pyridazin-3-amine]	6.46	–
c1nnc(NCC2CCCC2)cc1N1CCCNCC1 [Example 316, N-(Cyclopentylmethyl)-5-(1,4-diazepan-1-yl)pyridazin-3-amine]	6.56	–
N[C@@H]1CCN(c2ccnc(NCC3CCCO3)n2)C1 (stereo partly drawn) [Example 51, 4-[(R)-3-Aminopyrrolidin-1-yl]-N-(tetrahydrofuran-2-ylmethyl)pyrimidin-2-amine]	6.91	–
CN[C@@H]1CCN(c2ccnc(NCC3CC3)n2)C1 [Example 77, Cyclopropylmethyl-[4-(3R)-(3-methylamino-pyrrolidin-1-yl)-pyrimidin-2-yl]-amine]	8.48	–
CNC1CN(c2cnnc(NCC3CC3)c2)C1 [Example 327, N-(Cyclopropylmethyl)-5-[3-(methylamino)azetidin-1-yl]pyridazin-3-amine]	7.02	–
CNC1CN(c2ccnc(NCCCO)n2)C1 [Example 135, 3-({4-[3-(Methylamino)azetidin-1-yl]pyrimidin-2-yl}amino)propan-1-ol]	7.80	–
CCCCNc1cc(N2C[C@H]3CCN[C@H]3C2)cnn1 [Example 310, N-Butyl-5-[(3aR,6aR)-hexahydropyrrolo[3,4-b]pyrrol-5(1H)-yl]pyridazin-3-amine]	6.21	–
CN[C@@H]1CCN(c2ccnc(NCc3ccccn3)n2)C1 [Example 83, [4-(3R)-(3-Methylamino-pyrrolidin-1-yl)-pyrimidin-2-yl]-pyridin-2-ylmethyl-amine]	6.71	–
CCCCNc1nccc(N2CC[C@@H](N)C2)n1 [Example 46, 4-[(3R)-3-Aminopyrrolidin-1-yl]-N-butylpyrimidin-2-amine]	8.08	–
N[C@H]1CCN(c2ccnc(NCC3CC3)n2)C1 [Example 109, 4-[(3S)-3-Aminopyrrolidin-1-yl]-N-(cyclopropylmethyl)pyrimidin-1-amine]	7.19	–
N[C@@H]1CCN(c2ccnc(NCC3CCCC3)c2)C1 [Example 278, 4-[(3R)-3-Aminopyrrolidin-1-yl]-N-(cyclopentylmethyl)pyridin-2-amine]	8.14	–
Cc1ccc(CNc2cc(N3CCNCC3)cnn2)cc1 [Example 344, N-(4-Methylbenzyl)-5-piperazin-1-ylpyridazin-3-amine]	< 5.00	–
CC(C)(CO)CNc1nccc(N2CC[C@H](N)C2)n1 [Example 130, 3-({4-[(3S)-3-Aminopyrrolidin-1-yl]pyrimidin-2-yl}amino)-2,2-dimethylpropan-1-ol]	6.07	–

SMILES	pKi [1]	also measured
CN1CCN(c2ccnc(NC3CCCC3)n2)CC1 [Example 48, N-Cyclopentyl-4-(4-methylpiperazin-1-yl)pyrimidin-2-amine]	7.57	–
CNC1CN(c2cnnc(NCCCO)c2)C1 [Example 334, 3-({5-[3-(Methylamino)azetidin-1-yl]pyridazin-3-yl}amino)propan-1-ol]	5.59	–
CC(C)CNc1cc(N2CCN(C)CC2)cnn1 [Example 101, 5-(4-Methylpiperazin-1-yl)-N-(2-methylpropyl)pyridazin-3-amine]	< 5.00	pKi [2]: < 5.00
CC1(C)[C@H]2CC[C@H](CNc3cc(N4CC(N)C4)cnn3)[C@@H]1C2 [Example 306, 5-(3-Aminoazetidin-1-yl)-N-{[(1S,2S,5S)-6,6-dimethylbicyclo[3.1.1]hept-2-yl]methyl}pyridazin-3-amine]	5.14	–
CC(C)CNc1cc(N2CC(N)C2)cnn1 [Example 328, 5-(3-Aminoazetidin-1-yl)-N-(2-methylpropyl)pyridazin-3-amine]	5.78	–
CC(C)(CO)CNc1nccc(N2CC3CCN[C@H]3C2)n1 (stereo in doubt) [Example 148, 3-({4-[(3aR,6aR)-Hexahydropyrrolo[3,4-b]pyrrol-5(1H)-yl]pyrimidin-2-yl}amino)-2,2-dimethylpropan-1-ol]	6.60	–
C[C@@H]1[C@@H](Nc2nccc(N3CCN(C)CC3)n2)C[C@H]2C[C@@H]1C2(C)C [Example 168, 4-(4-Methylpiperazin-1-yl)-N-[(1S,2S,3S,5R)-2,6,6-trimethylbicyclo[3.1.1]hept-3-yl]pyrimidin-2-amine]	6.32	–
CCCCNc1cc(N2CCNCC2)ccn1 [Example 36, N-Butyl-4-piperazin-1-ylpyridin-2-amine]	–	Ki (Cell Harvester Ki (nM)): 104 nM; pKi (read-out: Brandel Ki): 7.04
COc1ccc(CNc2nccc(N3CC[C@@H](N)C3)n2)cc1 [Example 185, 4-[(3R)-3-Aminopyrrolidin-1-yl]-N-(4-methoxybenzyl)pyrimidin-2-amine]	5.76	–
N[C@@H]1CCN(c2ccnc(NC3CCCCC3)n2)C1 [Example 181, 4-[(3R)-3-Aminopyrrolidin-1-yl]-N-cyclohexylpyrimidin-2-amine]	8.04	–
N[C@@H]1CCN(c2ccnc(NC3CCCC3)n2)C1 [Example 25, 4-[(3R)-3-Aminopyrrolidin-1-yl]-N-cyclopentylpyrimidin-2-amine]	8.42	–
N[C@@H]1CCN(c2ccnc(NCC3CCCCC3)n2)C1 [Example 197, 4-[(3R)-3-Aminopyrrolidin-1-yl]-N-(cyclohexylmethyl)pyrimidin-2-amine]	7.76	–
CNC1CN(c2cnnc(NC3CCCC3)c2)C1 [Example 332, N-Cyclopentyl-5-[3-(methylamino)azetidin-1-yl]pyridazin-3-amine]	5.78	–
c1ccc(CNc2nccc(N3CCNCC3)n2)cc1 [Example 131, N-Benzyl-4-piperazin-1-ylpyrimidin-2-amine]	6.09	–
N[C@@H]1CCN(c2ccnc(NCc3ccccn3)n2)C1 [Example 61]	< 5.00	–
CN1CCN(c2ccnc(NCC(C)(C)O)c2)CC1 [Example 241, 2-Methyl-1-{[4-(4-methylpiperazin-1-yl)pyridin-2-yl]amino}propan-2-ol]	6.08	–
CNC1CN(c2ccnc(NCCc3ccccc3)c2)C1 [Example 294, 4-[3-(Methylamino)azetidin-1-yl]-N-(2-phenylethyl)pyridin-2-amine]	6.99	–
CNC1CN(c2ccnc(NCc3ccccc3)c2)C1 [Example 285, N-Benzyl-4-[3-(methylamino)azetidin-1-yl]pyridin-2-amine]	6.85	–
C[C@@H](Nc1cc(N2CCNCC2)cnn1)c1ccccc1 [Example 349, N-[(1R)-1-Phenylethyl]-5-piperazin-1-ylpyridazin-3-amine]	< 5.00	–
N[C@@H]1CCN(c2ccnc(NC3CCCC3)c2)C1 [Example 292, 4-[(3R)-3-Aminopyrrolidin-1-yl]-N-cyclopentylpyridin-2-amine]	8.15	–
N[C@@H]1CCN(c2ccnc(NC3CC3)n2)C1 [Example 55, 4-[(3R)-3-Aminopyrrolidin-1-yl]-N-cyclopropylpyrimidin-2-amine]	6.99	pKi [2]: 6.86
CN[C@@H]1CCN(c2cnnc(NCc3ccc(OC)cc3)c2)C1 [Example 400, N-(4-Methoxybenzyl)-5-[(3R)-3-(methylamino)pyrrolidin-1-yl]pyridazin-3-amine]	5.67	–
CN[C@@H]1CCN(c2ccnc(NC3CC4CC(C3C)C4(C)C)n2)C1 (stereo partly drawn) [Example 184, 4-[(3R)-3-(Methylamino)pyrrolidin-1-yl]-N-[(1S,2S,3S,5R)-2,6,6-trimethylbicyolo[3.1.1]hept-3-yl]pyrimidin-2-amine]	8.80	–
